Results published in patent US9321772B2, “Substituted pyrazolo[3,4-D]pyrimidines and uses thereof” (The Regents of the University of California, priority 2011, dated 2016).
Entries after “also recorded” stand apart in the source; their conditions may differ.

Assays:
[1] = tested on: TT cell tumors in athymic nu/nu mice; assay: MEN2 (TT) mouse xenograft model; assay type: in vivo; conditions: for reduction of tumor progression relative to vehicle: nude mice transplanted with TT cells, oral gavage, median per group; for toxicity as assessed by animal body weights / tumor growth, in words: nude mice with TT tumors, PO administration
Protocol: FIG. 11. […] TT thyroid cancer cells were implanted into athymic nu/nu mice subcutaneously into the right flank under the conditions listed. Upon establishment of tumors, drugs were administered by oral gavage (5 days ON/2 days OFF schedule). Tumors were measured using digital calipers. […] VD=vandetanib.
FIG. 18A-18D. […] FIG. 18A. MEN2B (MZ) thyroid cancer cells were treated with the indicated concentrations of each inhibitor (7 days) and cell viability was quantitated by MTT assay. FIG. 18B. MEN2A (TT) thyroid cancer cells were treated with the indicated concentrations of each inhibitor (7 days) and cell viability was quantitated by MTT assay. FIG. 18C. […] Change in tumor volume was calculated per mouse. Values shown are the median percent change per group. 20 and 10 animals for vehicle and drug treated mice, respectively, were analyzed. FIG. 18D. Body weight measurements of AD80, Vandetanib (VD) and vehicle treated nude mice transplanted with TT cells. Values shown are the median of 20 and 10 animals for vehicle and drug treated mice, respectively.
TT-based tumors were grown for 46 days in athymic nu/nu male mice prior to drug administration.

Src = Src (Homo sapiens, UniProt P12931); assay: In vitro kinase assay, Src; assay type: biochemical; conditions: in vitro kinase profile, 1 μM
Chain of Src (P12931 whole entry, canonical isoform): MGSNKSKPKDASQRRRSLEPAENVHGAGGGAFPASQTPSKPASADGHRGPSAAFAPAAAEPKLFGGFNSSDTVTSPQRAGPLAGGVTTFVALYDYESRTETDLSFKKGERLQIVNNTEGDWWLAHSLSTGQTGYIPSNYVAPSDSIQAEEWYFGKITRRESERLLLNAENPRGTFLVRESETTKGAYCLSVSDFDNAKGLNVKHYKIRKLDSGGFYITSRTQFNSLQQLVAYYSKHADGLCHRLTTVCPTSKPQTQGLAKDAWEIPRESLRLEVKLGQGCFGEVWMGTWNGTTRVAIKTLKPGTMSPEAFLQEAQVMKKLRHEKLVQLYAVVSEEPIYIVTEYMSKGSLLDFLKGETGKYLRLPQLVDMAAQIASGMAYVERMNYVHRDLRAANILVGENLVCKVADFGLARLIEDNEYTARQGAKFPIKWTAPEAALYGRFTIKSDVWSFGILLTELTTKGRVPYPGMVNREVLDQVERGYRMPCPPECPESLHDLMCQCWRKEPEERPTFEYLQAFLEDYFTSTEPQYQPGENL
Protocol: (§1) Using in vitro kinase assays we tested AD57, AD36, and AD58 at 1 μM for activity against approximately one-half of the human kinome (FIG. 1E): 165 Ser/Thr kinases, 91 Tyr kinases, and 10 PI kinases were assayed, totaling 266 kinases (244 distinct kinases plus 22 mutant isoforms; see FIG. 6A-6C, FIG. 7A-7F, and FIG. 8 for measured inhibition values).
(§2) At least three major pathways are required for dRet^MEN2B-mediated transformation: Ras, Src, and glucose metabolism/PI3K (FIG. 3A; Ref (Read, R. D. et al., Genetics, 2005. 171(3): p. 1057-81)). We utilized in vitro kinase assays to assess compound activity against relevant kinases from each of these pathways, specifically Ret, B-Raf, Src, Tor, and S6K (FIG. 3B).

[2] = tested on: ER4 cells (ER4 subline of HCC827 cells resistant to erlotinib); assay: Apoptosis in ER4 cells (PARP cleavage, BIM induction); assay type: cell-based; conditions: 1 micromolar combined with erlotinib, 24 hour exposure
Protocol: FIG. 22. Induction of apoptosis by combined EGFR and AXL inhibition. ER4 cells (ER4 subline of HCC827 cells that are resistant to erlotinib treatment) plated at 0.5×10^6 cells/condition. 24-hour drug exposure. Apoptosis measured by induction of PARP cleavage and BIM induction. E is erlotinib, AD57 at 1 micromolar, AD80 at 1 micromolar, AD81 at 10 micromolar.

[3] = tested on: 765>dRet^MEN2B wings (Ras/Erk pathway activity); assay: Adult wing vein pattern assay (765>dRetMEN2B); assay type: in vivo, Drosophila; conditions: drug fed flies
Description: The adult Drosophila wing consists of a stereotypical pattern of […] and two cross-veins; increased Ras/Erk pathway activity leads to ectopic veins (e.g., Refs. (Sawamoto, K. et al., Dev Biol, 1996. 178(1): p. 13-22; Guichard, A. et al., Development, 1999. 126(12): p. 2663-76)). Expression of oncogenic dRet throughout the developing wing (765>dRet^MEN2B) led to disruption of the overall adult wing pattern including ectopic wing veins (FIG. 3D). Reducing gene dosage of the erk ortholog rolled (765>dRet^MEN2B erk−/+) suppressed these phenotypes (FIG. 3D), confirming that wing vein formation is dependent on Ras/Erk activity.

[4] = tested on: ER4 cells (ER4 subline of HCC827 cells resistant to erlotinib); assay: Erlotinib sensitivity of ER4 cells with AXL inhibitor treatment; assay type: cell-based; conditions: 0.1, 1, 10 micromolar in combination with erlotinib
Description: FIG. 21A-21C. Overcoming acquired resistance through AXL inhibitor treatment. Erlotinib plus AD57, AD80, or AD81 in ER4 cells (ER4 subline of HCC827 cells that are resistant to erlotinib treatment). Legend: diamond symbols are DMSO control, square symbols are 0.1 micromolar of compound, triangle symbols are 1 micromolar of compound, x symbol are 10 micromolar of compound, all in combination with erlotinib.

mTor = mTor (Homo sapiens, UniProt P42345); assay: In vitro kinase assay, mTor; assay type: biochemical; conditions: in vitro kinase profile, 1 μM
Protocol: as §1, §2

[5] = tested on: MEN2A (TT) thyroid cancer cells; assay: Immunoblot analysis of drug-treated TT cells; assay type: cell-based, human; conditions: for phospho-Ret and downstream biomarkers: 1 hour of treatment; for cell death (protein markers of apoptosis): 3 days, 2 μM
Protocol: FIG. 19. […] MEN2A (TT) and MEN2B (MZ) thyroid cancer cells were treated with the indicated drugs for 3 days at a final concentration of 2 μM. Cell lystates were immunoblotted for protein markers of apoptosis. Vandetanib (vand.) was included for comparison.
FIG. 20A-20B. […] FIG. 20A. MEN2B (MZ) and FIG. 20B. MEN2A (TT) thyroid cancer cells were treated with the indicated concentrations of drug. Following 1 hour of treatment, cells were harvested and lysates prepared for immunoblotting to detect the indicated proteins. VD=vandetanib; SF=sorafenib.

[6] = Pharmacokinetic profile in murine models; assay type: in vivo, mouse
Description: In addition to the experiments with AD57 and AD80 in drosophila, we have examined these molecules in murine models of cancer.

Ret kinase domain = target: T1, Ret kinase domain (Homo sapiens, UniProt P07949); assay: In vitro kinase assay, Ret; assay type: biochemical
T1 construct: determined against a purified form of the Ret kinase domain
T1 sequence (P07949 724-1016 limits assumed): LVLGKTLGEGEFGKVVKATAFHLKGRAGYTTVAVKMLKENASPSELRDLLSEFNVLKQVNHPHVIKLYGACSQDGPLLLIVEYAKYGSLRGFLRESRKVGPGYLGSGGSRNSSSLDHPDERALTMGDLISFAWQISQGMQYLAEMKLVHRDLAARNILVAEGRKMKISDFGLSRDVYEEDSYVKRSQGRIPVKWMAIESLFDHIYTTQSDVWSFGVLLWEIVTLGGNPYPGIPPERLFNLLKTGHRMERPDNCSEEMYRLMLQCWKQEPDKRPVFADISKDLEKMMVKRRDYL
Protocol: FIG. 1D. […] Half maximal inhibitory concentrations (IC50) were determined against a purified form of the Ret kinase domain.
as §1, §2

[7] = tested on: MZ-CRC-1 (MEN2B) cancer cell line; assay: MZ-CRC-1 cell viability (MTT assay); assay type: cell-based, human
B-Raf = B-Raf (Homo sapiens, UniProt P15056); assay: In vitro kinase assay, B-Raf; assay type: biochemical; conditions: in vitro kinase profile, 1 μM
Chain of B-Raf (P15056 whole entry): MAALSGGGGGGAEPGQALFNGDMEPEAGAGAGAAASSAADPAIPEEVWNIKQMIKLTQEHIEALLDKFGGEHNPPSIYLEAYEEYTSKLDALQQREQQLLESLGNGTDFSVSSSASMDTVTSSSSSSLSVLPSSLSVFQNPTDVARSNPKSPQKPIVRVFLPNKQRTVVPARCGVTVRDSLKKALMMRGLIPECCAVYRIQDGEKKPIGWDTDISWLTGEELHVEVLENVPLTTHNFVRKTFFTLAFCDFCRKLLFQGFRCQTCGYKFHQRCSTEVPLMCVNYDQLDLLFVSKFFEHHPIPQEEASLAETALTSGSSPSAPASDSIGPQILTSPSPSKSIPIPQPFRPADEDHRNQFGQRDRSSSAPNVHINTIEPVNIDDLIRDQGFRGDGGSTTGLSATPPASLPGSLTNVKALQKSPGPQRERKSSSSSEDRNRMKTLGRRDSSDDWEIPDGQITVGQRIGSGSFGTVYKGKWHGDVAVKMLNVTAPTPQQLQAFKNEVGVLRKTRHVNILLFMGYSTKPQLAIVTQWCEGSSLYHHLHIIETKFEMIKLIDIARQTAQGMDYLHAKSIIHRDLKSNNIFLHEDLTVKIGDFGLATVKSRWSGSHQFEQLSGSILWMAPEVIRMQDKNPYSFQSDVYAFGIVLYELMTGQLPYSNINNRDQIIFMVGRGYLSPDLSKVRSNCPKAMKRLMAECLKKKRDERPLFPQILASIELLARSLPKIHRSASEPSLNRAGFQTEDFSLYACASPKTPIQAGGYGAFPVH
Protocol: as §1, §2

S6K = S6K (Homo sapiens, UniProt P23443); assay: In vitro kinase assay, S6K; assay type: biochemical; conditions: in vitro kinase profile, 1 μM
Chain of S6K (P23443 whole entry): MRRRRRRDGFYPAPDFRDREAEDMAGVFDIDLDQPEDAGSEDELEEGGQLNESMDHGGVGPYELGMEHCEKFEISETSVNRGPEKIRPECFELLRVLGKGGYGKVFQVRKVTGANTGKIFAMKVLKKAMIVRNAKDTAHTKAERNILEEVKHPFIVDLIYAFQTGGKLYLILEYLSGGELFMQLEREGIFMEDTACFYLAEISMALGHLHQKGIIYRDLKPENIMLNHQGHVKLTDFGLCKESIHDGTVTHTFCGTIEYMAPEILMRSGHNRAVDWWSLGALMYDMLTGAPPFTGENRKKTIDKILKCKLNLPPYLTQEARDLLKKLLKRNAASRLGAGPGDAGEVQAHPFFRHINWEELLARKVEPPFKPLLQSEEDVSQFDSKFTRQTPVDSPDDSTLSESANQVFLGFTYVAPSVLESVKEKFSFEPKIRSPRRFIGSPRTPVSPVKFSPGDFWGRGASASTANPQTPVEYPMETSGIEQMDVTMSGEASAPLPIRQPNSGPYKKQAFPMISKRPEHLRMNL
Protocol: as §1, §2

Row | SMILES | reduction of tumor progression relative to vehicle [1] | toxicity as assessed by animal body weights [1] | tumor growth, in words [1] | Src inhibition, in words (Src) | apoptosis (PARP cleavage, BIM induction) [2] | ectopic wing vein / wing pattern phenotype [3] | sensitivity to erlotinib [4] | mTor inhibition, in words (mTor) | phospho-Ret and downstream biomarkers [5] | cell death (protein markers of apoptosis) [5] | pharmacokinetic profile, in words [6] | potency for Ret in vitro (Ret kinase domain; purified Ret kinase domain) | inhibition of MZ-CRC-1 cell viability / proliferation, in words [7] | IC50, fold more potent than Sorafenib ([7]; MZ-CRC-1 cell viability) | B-Raf (Raf) inhibition, in words (B-Raf) | S6K inhibition, in words (S6K) | Ret inhibition, in words (Ret kinase domain; in vitro kinase profile, 1 μM)
1 | CC(C)n1nc(-c2ccc(NC(=O)Nc3cccc(C(F)(F)F)c3)cc2)c2c(N)ncnc21 [AD57] | ~3 fold | no detectable toxicity | displays antitumor activity; also recorded: significant suppression of tumor growth | potent inhibitor; also recorded: strongly inhibited | enhances apoptosis | suppressed | confer dose-dependent sensitivity to erlotinib | potent inhibitor | potent inhibitors | induce cell death | pharmacokinetic profiles in a range that is similar to several clinical agents | near equal potency | most potent inhibition | approximately 150 fold | potent inhibitor | potent inhibitor | –
2 | CC(C)n1nc(-c2ccc(NC(=O)Nc3cc(C(F)(F)F)ccc3F)cc2)c2c(N)ncnc21 [AD80] | 3.1 fold | reduced body weight modulation relative to Vandetanib | enhanced tumor growth inhibition | inhibited | enhances apoptosis | suppressed; also recorded: potently rescued | confer dose-dependent sensitivity to erlotinib | not and greatly reduced mTor activity and lack significant inhibitory activity | potent downregulation of phospho-Ret; also recorded: potent inhibitors | induce cell death | pharmacokinetic profiles in a range that is similar to several clinical agents | – | inhibited proliferation | – | inhibited | inhibited | inhibited
